Laboratory results reported in US20250353835A1, “N-TETRAZOLYL ARYL UREA-BASED DERIVATIVES, PREPARATION METHOD THEREFOR, AND USE THEREOF” (Hangzhou Yirui Pharmaceutical Technology Co., Ltd, priority 2022, published 2025).
Where two headings read alike, the source gives them in different places.

How the values were obtained:
[1] = system: rat model of acute lung injury; experiment: Rat model of LPS-induced acute lung injury; assay type: in vivo, Wistar rats; set-up: IL-6 (serum) / IL-6 (homogenate of lung tissue) / IL-6 (bronchoalveolar lavage fluid) / TNF-α (serum) / TNF-α (homogenate of lung tissue) / TNF-α (bronchoalveolar lavage fluid): unit not given here; conditions: ELISA; for expression levels of IL-6 and TNF-α (in words): rat model of acute lung injury; for IL-6 (bronchoalveolar lavage fluid) / IL-6 (homogenate of lung tissue) / IL-6 (serum) / TNF-α (bronchoalveolar lavage fluid) / TNF-α (homogenate of lung tissue) / TNF-α (serum): test drug 30 mg/kg i.p. 2 h before and 1 h after LPS, 12 h after modeling
Protocol: 1. Experimental aminals: SPF-grade male Wistar rats, weighed 180-220 g, 6-8 weeks old.
3. Establishment of animal model: The rats were adaptively fed for one week. After the animals were anesthetized, 3 mg/kg LPS (B8) was injected intratracheally to prepare the rat model of acute lung injury.
4. […] At 2 hours before modeling (before tracheal injection of LPS), the test drug (30 mg/kg, the vehicle was 0.3% DMSO in saline) was intraperitoneally injected. At 1 hour after modeling, the test drug was administered once again (at the same dose). At 12 hours after modeling, the animals were sacrificed, and the samples were collected for the tests of various indexes. […]
5.2 ELISA method: 5 rats per group. The serum, alveolar lavage fluid, and tissue homogenate of one lung of each of the rats were subjected to ELISA assay to determine the TNF-α and IL-6 levels.

[2] = Pharmacokinetics in vivo in rats; set-up: species or system SD rats; conditions: for clearance / half-life / Vd / AUC / Cmax / bioavailability: SD, rat, plasma; for Vd: read-out: Apparent volume of distribution (Vss); for AUC: read-out: Area under the curve of plasma concentration-time (AUC); for Cmax: read-out: Peak concentration (Cmax)
Protocol: 1. […] At different time points after administration, blood samples were collected into EDTA blood sample collection tubes. Plasma was separated by centrifugation and stored at −20° C. for the analysis afterwards.
2. Handling of blood samples and LC-MS/MS analysis: the standard curve and formulation and processing of quality control sample: The compound stock solution was diluted with 50% methanol in water to form a standard curve working solution containing each compound at a concentration of 40-20000 ng/mL and a quality control working solution of 120, 1200, and 16000 ng/mL. 47.5 μL of blank rat plasma were respectively taken, and added into 2.50 μL of standard curve working solution or the quality control working solution, to formulate the standard curve samples containing the compound at a concentration of 2.00-1000.00 ng/mL and the quality control samples having a concentration of […] and 800.00 ng/mL. 400 μL of acetonitrile (containing 5 ng/mL of verapamil as an internal standard) was added respectively. The samples were vortexed for 3 min, centrifuged at 20000 rcf, 4° C. for 15 min. The supernatant was taken for LC-MS/MS analysis.
3. Treatment of the compound blood samples: 5 μL of plasma sample was taken, to which 95 μL of blank rat plasma was added, and 800 μL of acetonitrile (containing 5 ng/mL of verapamil as an internal standard) was added. The samples were vortexed for 3 min, centrifuged at 15000 rcf, 4° C. for 10 min. The supernatant was taken for LC-MS/MS analysis (chromatographic column: ACQUITY UPLC® BEH C18 2.1×50 mm 1.7 μm; mobile phase A: 0.1% formic acid in water; mobile phase B: acetonitrile; flow rate: […]).
4. Analysis of the results: pharmacokinetic parameters were fit and calculated by WinNonlin software using statistical […] method, mainly including kinetic parameters Tmax, t1/2, Cmax, AUC0-t, AUC0∞, Cl, Vd, F, etc. The pharmacokinetic data were calculated and processed using Microsoft Excel, such as mean and standard deviation.

[3] = Ocular irritation after eye drops: ophthalmic observation and free protoporphyrin (FEP) in eye rinsing solution (ELISA); assay type: in vivo, SD rats; conditions: 2% eye drops (10 μl) twice a day for 7 days
Protocol: 2.1 Experimental aminals: SPF grade male SD rats, weighed 180-200 g, were used and adaptively fed for one week.
2.3 Experimental animal grouping: the animals were randomly divided into 3 groups (6 rats per group) of a negative control group (normal saline), a Compound 71 group and a Compound 8 group.
2.4 Administration method and sampling: 2% Compound (10 μl) dissolved in normal saline (after filtration) was dropped into the surface of each rat's eye with a pipette for 10 s. The eye drop was applied twice a day for a total of 7 days. Samples were taken at 1 and 16 hours after the second administration on Day 7 of administration to determine the ocular distribution concentration of the drug.
[…] The rinsing solution was frozen at −80° C. for subsequent detection of irritant inflammatory response on the surface of the bulbus oculi.
2.7.2 Result of measurement of secretion of porphyrin: it was further determined whether inflammation or bleeding in the eyes occurred after eye drops by ELISA essay of free protoporphyrin (FEP) in erythrocytes. As indicated by the results, the level of FEP in the sample of eye rinsing solution was at a low concentration level for the rats in both the test drug group and the negative control group. There was no significant difference (P>0.05).

[4] = system: rat model of diabetic retinopathy; experiment: Rat model of diabetic retinopathy (STZ); assay type: in vivo, Wistar rats; conditions: for retinal leukocyte stasis, Leukocyte count: Concanavalin A/FITC, 14 days after intravitreal injection, compounds 0.25%, dexamethasone 0.1%; for number of leukocyte stasis in the retina (fluorescent staining, FIG. 8; in words) / retinal vascular penetration in rats (fluorescent staining, FIG. 6; in words): intraocular injection, versus model group
Protocol: 3.1 Laboratory animals: SPF-grade male Wistar rats, weighed 180-220 g.
3.3 Animal modeling and grouping: After one week of adaptive feeding, 134 male Wistar rats (weighed 220-260 g) were administered 65 mg/kg of STZ by one-time intraperitoneal injection to prepare a rat model of type I diabetic. The rats were fasting but water was allowable overnight for 15 h. The formulated STZ solution was intraperitoneally injected according to body weight. After 1 h, the diet was resumed and blood glucose was measured at 72 h. The successfully modeled diabetic rats (120 rats) were selected for continued feeding, and randomly divided into the following 6 groups according to blood glucose (20 rats per group), plus a group of normal rats with no STZ injected as a negative control group.
3.4 Administration: The rats continued to be fed until blood glucose was measured once before administration. After blood glucose reached the standard, drugs were intravitreally injected, and indexs were subsequently tested after 14 days. Blood glucose was measured once before sampling.
3.5 Evans blue staining method (7 groups, 6 rats per group): Evans blue was intravenously injected. 2 hours later, normal saline was perfused into the left ventricle. The retina was taken to compare between the stained area and the unstained area to detect retinal vascular permeability.
3.6 Retinal leukocyte stasis detection method (7 groups, 6 rats per group): PBS was perfused into the left ventricle for 1 min to remove red blood cells and other substances. Concanavalin A (FITC (Sigma, C7642) was perfused (20 μg/ml in PBS, 5 mg/kg) to mark adherent leukocytes. 4% PFA was perfused for 4 min for fixation. 1% Albumin (Sigma, A6414) (in PBS) was perfused for 1 min, and then PBS was perfused for 2 min. The retina was taken for retinal wholemount. Thereafter, the stasis of leukocytes on the vascular endothelium was observed under a fluorescence microscope. […]

[5] = 3 mg/kg oral administration in rats (Table 2A)
[6] = 3 mg/kg intravenous injection in rats

| Compound | expression levels of IL-6 and TNF-α (in words) [1] | IL-6 (bronchoalveolar lavage fluid) [1] | IL-6 (homogenate of lung tissue) [1] | IL-6 (serum) [1] | TNF-α (bronchoalveolar lavage fluid) [1] | TNF-α (homogenate of lung tissue) [1] | TNF-α (serum) [1] | Peak time [2, 5] [h] | clearance [2, 6] [mL/min/kg] | half-life [2, 6] [min] | Vd [2, 6] [L/kg] | AUC [2, 6] [ng·h/mL] | Cmax [2, 6] [ng/mL] | bioavailability [2, 5] [%] | half-life [2, 5] [min] | AUC [2, 5] [ng·h/mL] | Cmax [2, 5] [ng/mL] | FEP expression level in eye rinsing solution, Left eye ([3]; 1 h) [ng/mL] | FEP expression level in eye rinsing solution, Right eye ([3]; 1 h) [ng/mL] | FEP expression level in eye rinsing solution, Left eye ([3]; 16 h) [ng/mL] | other results |
| --- | --- | --- | --- | --- | --- | --- | --- | --- | --- | --- | --- | --- | --- | --- | --- | --- | --- | --- | --- | --- | --- |
| CCOc1ccc(-c2c(F)cc(NC(=O)N3CCC(C(C)(C)C)CC3)cc2-c2nn[nH]n2)cn1 [Compound 8, 4-(tert-butyl)-N-(4-(6-ethoxypyrid-3-yl)-3-fluoro-5-(2H-tetrazol-5-yl)phenyl)piperidine-1-carboxamide] | effectively reduce | 171.55 ± 81.93 | 250.10 ± 70.26 | 470.76 ± 151.60 | 26.72 ± 10.35 | 35.74 ± 11.82 | 94.89 ± 28.07 | 0.78 | 9.87 | 33.6 | 0.328 | 5090 | 16400 | 6.1 | 202 | 3130 | 1390 | 1.53 ± 0.03 | 1.45 ± 0.02 | 1.57 ± 0.08 | FEP expression level in eye rinsing solution, Right eye ([3]; 16 h): 1.57 ± 0.06 ng/mL; retinal leukocyte stasis, Leukocyte count [4]: 5.32 ± 1.38; number of leukocyte stasis in the retina (fluorescent staining, FIG. 8; in words) [4]: significantly reduced; retinal vascular penetration in rats (fluorescent staining, FIG. 6; in words) [4]: significantly reduced |
| CCOc1ccc(-c2ccc(NC(=O)N[C@H]3CC[C@H](C)CC3)cc2-c2nn[nH]n2)cn1 [Compound 71, 1-(4-(6-ethoxypyrid-3-yl)-3-(2H-tetrazol-5-yl)phenyl)-3-((trans)-4-methylcyclohexyl)urea] | effectively reduce | 184.29 ± 75.57 | 236.26 ± 84.91 | 473.14 ± 134.88 | 25.73 ± 11.35 | 37.03 ± 10.88 | 101.63 ± 37.40 | 2.72 | 2.42 | 55.8 | 0.156 | 20700 | 37500 | 3.6 | 218 | 7480 | 914 | 1.50 ± 0.02 | 1.54 ± 0.08 | 1.61 ± 0.06 | FEP expression level in eye rinsing solution, Right eye ([3]; 16 h): 1.55 ± 0.09 ng/mL; retinal leukocyte stasis, Leukocyte count [4]: 5.22 ± 1.13; number of leukocyte stasis in the retina (fluorescent staining, FIG. 8; in words) [4]: significantly reduced; retinal vascular penetration in rats (fluorescent staining, FIG. 6; in words) [4]: significantly reduced |
